Test results as given in patent US20050058665A1, “Identification of virulence determinants activators in prokaryotic pathogens” (Boston Medical Center Corporation, priority 1998, published 2005).

Assays:
DtxR = target: T1, DtxR (Corynebacterium diphtheriae, UniProt P0DJL7); assay: PSDT system, chloramphenicol resistance phenotype of the indicator strain; assay type: cell-based; details: E. coli TOP10/λRS65T/pSC6/pRDA; DP added to growth medium
T1 construct: expressed in transfected cells; host or cells: E. coli TOP10/λRS65T/pSC6/pRDA
T1 sequence (P0DJL7 1-226): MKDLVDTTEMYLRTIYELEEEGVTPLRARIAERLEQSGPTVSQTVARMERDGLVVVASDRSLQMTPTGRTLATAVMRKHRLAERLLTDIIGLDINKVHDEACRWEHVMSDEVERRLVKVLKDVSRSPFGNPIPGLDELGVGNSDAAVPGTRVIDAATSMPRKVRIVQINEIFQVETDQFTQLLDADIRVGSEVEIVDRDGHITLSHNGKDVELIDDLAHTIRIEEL
From the text: Development of the PSDT System. The PSDT system, which consists of a lysogenic E. coli TOP1O host strain carrying the reporter gene cat on an integrated λ phage, λRS65T, and a set of detector plasmids, is illustrated in FIG. 1. Expression of cat on λRS65T is controlled by the tetA promoter/operator (tetAPO), and, in the absence of the tetracycline repressor (TetR), E. coli TOP10/λRS65T is resistant to chloramphenicol (Cm^R).
We next constructed the detector plasmid pSC6, which carries the tetR gene under the control of the diphtheria toxPO. When pSC6 is transformed into E. coli TOP10/λRS65T, the bacterial host strain becomes Cm-sensitive (Cm^S) by virtue of the constitutive expression of tetR, which recognizes and binds to the tetAO and represses cat gene expression. However, if a functional dtxR allele is introduced into the bacterial host on a second compatible plasmid, PRDA, the interaction between DtxR and the toxO will repress the expression of tetR, and the bacterial host, E. coli TOP10/λRS65T/pSC6/pRDA, then will regain its CM^rphenotype.

toxPO-lacZ = assay: β-galactosidase assay in toxPO-lacZ reporter strain; assay type: cell-based; details: E. coli DH5α/λRS45 toxPO; LB broth, absence or presence of increasing concentrations of DP (up to 250 μM)
Method: β-Galactosidase Assay. β-galactosidase activity was measured essentially as described by Miller (Miller, J. H. (1972) Experiments in Molecular Genetics (Cold Spring Harbor Lab. Press, Plainview, N.Y.)). In brief, 0.5 ml of an overnight culture at ^A600 of =1.0 were lysed by the addition of lysis mix (chloroform:10% SDS, 2:1), vortexing the mixture for 10 sec and transferring 200 μl to 800 ul lacZ buffer (60 mM Na2HPO4/40 mM NaH2PO4/10 mM KCl/1 mM MgSO4/50 mM β-mercaptoethanol). The reaction was initiated by adding 200 μl of o-nitrophenyl β-D-galactopyranoside (Sigma) (4 mg/ml). After incubation at room temperature (5 min-1 hr), the reaction was stopped by the addition of 0.5 ml of 1M sodium carbonate. Absorbance was measured at 420 and 550 nm, and β-galactosidase units were calculated according to Miller, supra.
The resulting plasmids were designated pDM2, pDM3, pDM11, and pDM5, respectively. The pDM series of plasmids then were transformed individually into E. coli DH5α/λRS45 toxPO. This reporter strain carries a transcriptional fusion in which the lacZ gene is under the control of the diphtheria toxPO, toxPO-lacZ, and, as a result, the synthesis of β-galactosidase is regulated by their respective dtxR gene products. Individual strains were grown in LB broth supplemented with appropriate antibiotics in either the absence or presence of increasing concentrations of DP. […]

c1ccc(-c2ccccn2)nc1 [DP, 2,2′-dipyridyl]
chloramphenicol resistance phenotype (DtxR): phenotypic conversion from Cm^R to Cm^S

B1: wild-type DtxR (protein, UniProt P0DJL7 1-226, looked up)
Diphtheria toxin repressor: MKDLVDTTEMYLRTIYELEEEGVTPLRARIAERLEQSGPTVSQTVARMERDGLVVVASDRSLQMTPTGRTLATAVMRKHRLAERLLTDIIGLDINKVHDEACRWEHVMSDEVERRLVKVLKDVSRSPFGNPIPGLDELGVGNSDAAVPGTRVIDAATSMPRKVRIVQINEIFQVETDQFTQLLDADIRVGSEVEIVDRDGHITLSHNGKDVELIDDLAHTIRIEEL
β-galactosidase activity (toxPO-lacZ): β-galactosidase activity increases
